pEC50: −log10 of the molar value.

Data set [1] is described as follows: Cytotoxicity determination in HepG2.2.15 cells (CCK-8). In kind it is cell-based. Particulars: human, 6 days of compound treatment, CCK-8, highest concentration 100 μM. The method, boiled down: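 CC50 is from CCK-8 absorbance (450 nm, 630 nm reference) after 2.5 h with reagent. Before that, compounds were applied for six days, top concentration 100 μM, eight threefold dilutions, one mid-course medium change, to stably HBV-integrated HepG2.2.15 cells plated at 5,000/well in 2% FBS.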

Data set [2] relates to HBV. Nature of the data set: HBV inhibitory activity: HBV DNA in the culture medium of HepG2.2.15 cells by q-PCR. In kind it is cell-based. Particulars: Hepatitis B virus, HepG2.2.15, 144 h, HepG2.2.15 cells, 6 days of compound treatment, HBV DNA in culture medium by q-PCR, highest concentration 10 μM; read-out: EC50. A digest of the protocol: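 Supernatant HBV DNA quantified by q-PCR after a 6-day compound exposure, with one mid-course medium change, of HepG2.2.15 cells (stably integrated HBV; 40,000 per well, 2% FBS). Eight-point 3-fold series topped at 10 μM for antiviral EC50; separate plates of 5,000 cells per well with 100 μM top give CC50.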

Turning to `CNS(=O)(=O)[C@H]1CC[C@H](C2=C(C(=O)OC)C(c3cccc(F)c3Cl)N=C(c3nccs3)N2)CC1` (single isomer, unassigned) [Compound 259E, (trans)-methyl 4-(2-chloro-3-fluorophenyl)-6-(4-(N-methylsulfamoyl)cyclohexyl)-2-(thiazol-2-yl)-1,4-dihydropyrimidine-5-carboxylate], half-maximal cytotoxicity in data set [1] (CC50 at 6 days) was put at 22.7 µM. In addition, the negative logarithm of the EC50 (pEC50) in data set [2] was 7.55.

The compound `COC(=O)C1=C([C@H]2CC[C@@H](N(CCO)S(C)(=O)=O)CC2)NC(c2nccs2)=NC1c1ccc(F)cc1Cl` (single isomer, unassigned) [Compound 180B, (cis)-Methyl 4-(2-chloro-4-fluorophenyl)-6-(4-(N-(2-hydroxyethyl)methylsulfonamido)cyclohexyl)-2-(thiazol-2-yl)-1,4-dihydro-pyrimidine-5-carboxylate] came in with a cytotoxic concentration (CC50) at 6 days in data set [1] of 22.1 µM. Further, in data set [2], the pEC50 was 7.62.

As to `COC(=O)C1=C(C2CCN(S(C)(=O)=O)CC2)NC(c2nccs2)=NC1c1cccc(F)c1Cl` (single isomer, unassigned) [Compound 112B, Methyl 4-(2-chloro-3-fluorophenyl)-6-(1-(methylsulfonyl)-piperidin-4-yl)-2-(thiazol-2-yl)-1,4-dihydropyrimidine-5-carboxylate], in data set [1], the CC50 at 6 days was determined as 8.2 µM. Besides, in data set [2], the pEC50 was 6.02.

`CNS(=O)(=O)[C@H]1CC[C@H](C2=C(C(=O)OC)C(c3ccc(F)c(F)c3Cl)N=C(c3ncc(F)cc3F)N2)CC1` (single isomer, unassigned) [Compound 168A, methyl 4-(2-chloro-3,4-difluorophenyl)-2-(3,5-difluoropyridin-2-yl)-6-((trans)-4-(N-methylsulfamoyl)cyclohexyl)-1,4-dihydropyrimidine-5-carboxylate]: in data set [1], the half-maximal cytotoxic concentration (CC50) at 6 days came out at 12.5 µM. Also, the pEC50 in data set [2] was 8.22.

Regarding `COC(=O)C1=C([C@H]2CC[C@H](NS(=O)(=O)C3COC3)CC2)NC(c2nccs2)=NC1c1ccc(F)cc1Cl` (single isomer, unassigned) [Compound 384B, (trans)-Methyl 4-(2-chloro-4-fluorophenyl)-6-(4-(oxetane-3-sulfonamido)cyclohexyl)-2-(thiazol-2-yl)-1,4-dihydropyrimidine-5-carboxylate], in data set [1], the CC50 at 6 days was determined as 34 µM. In data set [2], the pEC50 is 7.19.

For `COC(=O)C1=C([C@H]2CC[C@H](C(=O)OC)CC2)NC(c2ncc(F)cc2F)=NC1c1ccc(F)cc1Cl` (single isomer, unassigned) [Compound 174A, Methyl 4-(2-chloro-4-fluorophenyl)-2-(3,5-difluoropyridin-2-yl)-6-((trans)-4-(methoxycarbonyl)cyclohexyl)-1,4-dihydropyrimidine-5-carboxylate], the cytotoxic concentration (CC50) at 6 days in data set [1] was 19.4 µM. Besides, the negative-log EC50 (pEC50) in data set [2] was 6.89.

Turning to `COC(=O)C1=C(C2CCN(S(=O)(=O)C3CCC(CC(=O)O)CC3)CC2)NC(c2nccs2)=NC1c1ccc(F)c(F)c1Cl` (stereo not drawn) [Compound 478, 2-(4-((4-(6-(2-Chloro-3,4-difluorophenyl)-5-(methoxycarbonyl)-2-(thiazol-2-yl)-3,6-dihydropyrimidin-4-yl)piperidin-1-yl)sulfonyl)cyclohexyl)acetic Acid], it took 23.4 µM to reach half-maximal cytotoxicity in data set [1] (CC50 at 6 days). For the same compound, in data set [2], the negative-log EC50 (pEC50) was 8.22.

On to `COC(=O)C1=C(C2CCN(S(=O)(=O)CCO)CC2)NC(c2nccs2)=NC1c1ccc(F)c(F)c1Cl` (stereo not drawn) [Compound 474, methyl 4-(2-chloro-3,4-difluorophenyl)-6-(1-((2-hydroxyethyl)sulfonyl)piperidin-4-yl)-2-(thiazol-2-yl)-1,4-dihydropyrimidine-5-carboxylate], for which the midpoint of cytotoxicity in data set [1], the CC50 at 6 days, lay at 18.3 µM. Further, in data set [2], the negative logarithm of the EC50 (pEC50) is 8.15.

Regarding `COC(=O)C1=C(C2CCOCC2)NC(c2nccs2)=NC1c1cccc(F)c1Cl` (single isomer, unassigned) [Compound 50B, 4-(2-Chloro-3-fluoro-phenyl)-6-(tetrahydro-pyran-4-yl)-2-thiazol-2-yl-1,4-dihydro-pyrimidine-5-carboxylic acid methyl ester], in data set [1], the CC50 at 6 days was 35.6 µM. The pEC50 in data set [2] was 6.57.

Usually CC50 stands for the concentration giving 50% cytotoxicity. Higher therefore signals better tolerance by the cells. Usually pEC50 stands for −log10 of the EC50, conventionally taken in molar units.

The values above are taken from US11639350B2, “Heteroaryldihydropyrimidine derivatives and methods of treating hepatitis B infections” (Janssen Pharmaceutica NV, priority 2018, dated 2023).
